Results published in the supplement of paper PMC10307832.

Tests used:
Experiment in all cases: relative viability (nuclei count vs DMSO), 5 days (fraction); higher = more cells survive
EHT 1864 + Bortezomib = compound: C1COCCN1CC2=CC(=O)C(=CO2)OCCCCCSC3=C4C=CC(=CC4=NC=C3)C(F)(F)F [EHT 1864] + CC(C)C[C@H](NC(=O)[C@H](Cc1ccccc1)NC(=O)c1cnccn1)B(O)O [Bortezomib] (partner 0.002 µM)
In short: (§1)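 For relative viability, nuclei counts in treated wells were divided by those in vehicle wells. Lung cancer cell lines had been pin-tool dosed in 1536-well plates the day after seeding and cultured for 5 days, then fixed and stained in one step (final 0.05% Triton X-100, 1% formaldehyde, 1 ug/ml Hoechst) and imaged at 4×. Doses were one drug alone or a fixed anchor-drug dose plus five library-drug doses (not always all listed) in √10 steps, and values are duplicate-plate medians.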

EHT 1864 + Navitoclax = compound: C1COCCN1CC2=CC(=O)C(=CO2)OCCCCCSC3=C4C=CC(=CC4=NC=C3)C(F)(F)F [EHT 1864] + CC1(C)CCC(c2ccc(Cl)cc2)=C(CN2CCN(c3ccc(C(=O)NS(=O)(=O)c4ccc(N[C@H](CCN5CCOCC5)CSc5ccccc5)c(S(=O)(=O)C(F)(F)F)c4)cc3)CC2)C1 [Navitoclax] (partner 0.5 µM)
In short: as §1

EHT 1864 + Luminespib = compound: C1COCCN1CC2=CC(=O)C(=CO2)OCCCCCSC3=C4C=CC(=CC4=NC=C3)C(F)(F)F [EHT 1864] + CCNC(=O)c1noc(-c2cc(C(C)C)c(O)cc2O)c1-c1ccc(CN2CCOCC2)cc1 [Luminespib] (partner 0.01 µM)
In short: as §1

EHT 1864 + Dasatinib = compound: C1COCCN1CC2=CC(=O)C(=CO2)OCCCCCSC3=C4C=CC(=CC4=NC=C3)C(F)(F)F [EHT 1864] + Cc1nc(Nc2ncc(C(=O)Nc3c(C)cccc3Cl)s2)cc(N2CCN(CCO)CC2)n1 [Dasatinib] (partner 0.075 µM)
In short: as §1

Row | Cell Line | relative viability (EHT 1864 + Bortezomib; first compound 0.04 µM) | relative viability (EHT 1864 + Bortezomib; first compound 0.1265 µM) | relative viability (EHT 1864 + Bortezomib; first compound 0.4 µM) | relative viability (EHT 1864 + Bortezomib; first compound 1.265 µM) | relative viability (EHT 1864 + Bortezomib; first compound 4 µM) | relative viability (EHT 1864 + Navitoclax; first compound 0.04 µM) | relative viability (EHT 1864 + Navitoclax; first compound 0.1265 µM) | relative viability (EHT 1864 + Navitoclax; first compound 0.4 µM) | relative viability (EHT 1864 + Navitoclax; first compound 1.265 µM) | relative viability (EHT 1864 + Navitoclax; first compound 4 µM) | relative viability (EHT 1864 + Luminespib; first compound 0.04 µM) | relative viability (EHT 1864 + Luminespib; first compound 0.1265 µM) | relative viability (EHT 1864 + Luminespib; first compound 0.4 µM) | relative viability (EHT 1864 + Luminespib; first compound 1.265 µM) | relative viability (EHT 1864 + Luminespib; first compound 4 µM) | relative viability (EHT 1864 + Dasatinib; first compound 0.04 µM) | relative viability (EHT 1864 + Dasatinib; first compound 0.1265 µM) | relative viability (EHT 1864 + Dasatinib; first compound 0.4 µM) | relative viability (EHT 1864 + Dasatinib; first compound 1.265 µM) | relative viability (EHT 1864 + Dasatinib; first compound 4 µM)
1 | 201T | 1.14 | 1.04 | 1.05 | 1.09 | 1.09 | 1.27 | 1.2 | 1.22 | 1.15 | 1.16 | 0.994 | 1.06 | 1.01 | 0.891 | 0.946 | 0.563 | 0.587 | 0.589 | 0.473 | 0.528
2 | A-427 | 1.06 | 1.02 | 0.944 | 0.931 | 0.863 | 1.15 | 0.941 | 0.823 | 0.911 | 0.884 | 0.876 | 0.952 | 0.899 | 0.942 | 0.906 | 0.643 | 0.655 | 0.613 | 0.705 | 0.623
3 | ABC-1 | 0.32 | 0.306 | 0.316 | 0.371 | 0.303 | – | – | – | – | – | 0.816 | – | 0.48 | 0.387 | 0.422 | 0.504 | – | 0.631 | 0.488 | 0.439
4 | BEN | 0.8 | 0.719 | 0.64 | 0.549 | 0.624 | 0.0831 | 0.0599 | 0.0547 | 0.075 | 0.238 | 0.264 | 0.17 | 0.527 | 0.333 | 0.533 | 0.384 | 0.279 | 0.377 | 0.308 | 0.36
5 | CAL-12T | 1.03 | 0.815 | 0.928 | 0.965 | 0.981 | 1.03 | 1.07 | 1.04 | 1.19 | 1.22 | 0.563 | 0.178 | 0.366 | 0.373 | 0.46 | 0.54 | 0.38 | 0.409 | 0.353 | 0.483
6 | COR-L23 | 1.08 | 0.85 | 1.01 | 1.05 | 0.867 | 1.01 | 0.901 | 1.01 | 0.979 | 0.932 | 0.699 | 0.528 | 0.613 | 0.642 | 0.494 | 0.492 | 0.396 | 0.467 | 0.485 | 0.439
7 | COR-L 105 | 0.772 | 0.7 | 0.941 | 0.751 | 0.727 | 0.883 | 0.783 | 0.801 | 0.707 | 0.723 | 0.748 | 0.751 | 0.808 | 0.628 | 0.686 | 0.415 | 0.314 | 0.34 | 0.334 | 0.396
8 | Calu-6 | 0.97 | 0.844 | 0.846 | 1.11 | 0.917 | 0.816 | 0.7 | 0.876 | 0.757 | 0.764 | – | – | – | – | – | – | – | – | – | –
9 | ChaGo-K-1 | 0.939 | 1.05 | 0.997 | – | 0.965 | 1.07 | 0.938 | 0.802 | – | 1.07 | 0.487 | 0.604 | 0.703 | 0.547 | 0.559 | 0.587 | 0.551 | 0.619 | 0.602 | 0.616
10 | EBC-1 | 0.56 | 0.524 | 0.505 | 0.509 | 0.541 | 0.381 | 0.329 | 0.449 | 0.431 | 0.429 | – | – | – | – | – | – | – | – | – | –
11 | EKVX | 0.995 | 0.984 | 0.971 | 0.818 | 0.977 | 0.937 | 0.906 | 0.88 | 0.857 | 1.03 | 0.9 | 0.871 | 0.834 | 0.836 | 0.885 | 0.631 | 0.436 | 0.536 | 0.51 | 0.58
12 | EMC-BAC-2 | 1.07 | 0.891 | 1.06 | 0.951 | 1.23 | 1.09 | 1.09 | 1.12 | 1.13 | 1.2 | 1.12 | 1.09 | 1.16 | 1.12 | 1.05 | 0.359 | 0.342 | 0.338 | 0.276 | 0.325
13 | EPLC-272H | 0.774 | 0.63 | 0.839 | 0.823 | 0.977 | 1.11 | 1.05 | 1.18 | 1.28 | 1.24 | 0.347 | 0.365 | 0.266 | 0.521 | 0.606 | 0.359 | 0.327 | 0.395 | 0.452 | 0.275
14 | H3255 | 0.697 | 0.6 | 1.11 | 0.784 | 1.03 | 0.561 | 0.506 | 0.457 | 0.441 | 0.448 | 0.895 | 0.799 | 1.01 | 0.917 | 1.07 | 0.437 | 0.391 | 0.346 | 0.344 | 0.343
